These results are taken from patent US10064873B2, “Compounds and compositions for treating HIV with derivatives of Betulin” (GlaxoSmithKline LLC, priority 2011, dated 2018).

The structures appear in SMILES notation. Where two headings read alike, the source gives them in different places.

The subject of the assay is HIV NL4-3 wt. The assay is described as follows: MT4 antiviral assay, NL4-3 strain wild type. It is filed as cell-based, HIV-1.
[1] abbreviates: Human immunodeficiency virus 1, NL43, MT4 cells, read-out: EC50 NL4-3 wt.
Where [2] appears, read: Human immunodeficiency virus 1, NL43, MT4, read-out: EC50 NL4-3 wt (nM).

With `CC(C)C1=C2[C@H]3CC[C@@H]4[C@@]5(C)CC[C@H](OC(=O)CC(C)(C)C(=O)O)C(C)(C)[C@@H]5CC[C@@]4(C)[C@]3(C)CC[C@@]2([C@@H](O)CN2CCc3ccccc3C2)CC1=O` [Example 63, 4-(((3aR,5aR,5bR,7aR,9S,11aR,11bR,13aS)-3a-((R)-2-(3,4-dihydroisoquinolin-2(1H)-yl)-1-hydroxyethyl)-1-isopropyl-5a,5b,8,8,11a-pentamethyl-2-oxo-3,3a,4,5,5a,5b,6,7,7a,8,9,10,11,11a,11b,12,13,13a-octadecahydro-2H-cyclopenta[a]chrysen-9-yl)oxy)-2,2-dimethyl-4-oxobutanoic acid], the EC50 under setting [1] stood at 3.2 nM. For the molecule `CC(C)C1=C2[C@H]3CC[C@@H]4[C@@]5(C)CC[C@H](OC(=O)CC(C)(C)C(=O)O)C(C)(C)[C@@H]5CC[C@@]4(C)[C@]3(C)CC[C@@]2(CCNC(=O)c2ccccc2)CC1=O` [Example 83, 2,2-dimethyl-4-oxo-4-{[(1R,2R,5R,10S,13R,14R, 17S,19R)-1,2,14,18,18-pentamethyl-7-oxo-5-[2-(phenylformamido)ethyl]-8-(propan-2-yl)pentacyclo[11.8.0.0^ {2,10}.0^{5,9}.0^{14,19}]henicos-8-en-17-yl]oxy)butanoic acid], the half-maximal effective concentration (EC50) under setting [2] stood at 7.3 nM. `CC(=O)O[C@@H](CN(CCN(C)C)Cc1ccc(F)cc1)[C@@]12CC[C@]3(C)[C@H](CC[C@@H]4[C@@]5(C)CC[C@H](OC(=O)CC(C)(C)C(=O)O)C(C)(C)[C@@H]5CC[C@]43C)C1=C(C(C)C)C(=O)C2` [Example 71, 4-(((3aR,5aR,5bR,7aR,9S,11aR,11bR,13aS)-3a-((R)-1-acetoxy-2-((2-(dimethylamino)ethyl)(4-fluorobenzyl)amino)ethyl)-1-isopropyl-5a,5b,8,8,11a-pentamethyl-2-oxo-3,3a,4,5,5a,5b,6,7,7a,8,9,10,11,11a,11b,12,13,13a-octadecahydro-2H-cyclopenta[a]chrysen-9-yl)oxy)-2,2-dimethyl-4-oxobutanoic acid]: under setting [1], the EC50 stood at 31.2 nM. On the same count and under the same terms, next, `CC(=O)O[C@H](CNCc1ccc(Cl)cc1)[C@@]12CC[C@]3(C)[C@H](CC[C@@H]4[C@@]5(C)CC[C@H](OC(=O)CC(C)(C)C(=O)O)C(C)(C)[C@@H]5CC[C@]43C)C1=C(C(C)C)C(=O)C2` [Example 17, 4-(((3aR,5aR,5bR,7aR,9S,11aR,11bR,13aS)-3a-((S)-1-Acetoxy-2-((4-chlorobenzyl)amino)ethyl)-1-isopropyl-5a,5b,8,8,11a-pentamethyl-2-oxo-3,3a,4,5,5a,5b,6,7,7a,8,9,10,11,11a,11b,12,13,13a-octadecahydro-2H-cyclopenta[a]chrysen-9-yl)oxy)-2,2-dimethyl-4-oxobutanoic acid]: 8.7 nM; `CC(C)C1=C2[C@H]3CC[C@@H]4[C@@]5(C)CC[C@H](OC(=O)CC(C)(C)C(=O)O)C(C)(C)[C@@H]5CC[C@@]4(C)[C@]3(C)CC[C@@]2([C@@H](O)CN(CCN(C)C)C(=O)c2ccc(Cl)cc2)CC1=O` [Example 81, 4-{[(1R,2R,5R,10S,13R,14R, 17S,19R)-5-[(1R)-2-[1-(4-chlorophenyl)-N-[2-(dimethylamino)ethyl] formamido]-1-hydroxyethyl]-1,2,14,18,18-pentamethyl-7-oxo-8-(propan-2-yl)pentacyclo[11.8.0.0^ {2,10}.0^{5,9}.0^{14,19}]henicos-8-en-17-yl]oxy}-2,2-dimethyl-4-oxobutanoic acid]: 3 nM; `CC(=O)O[C@H](CNCc1ccc(F)cc1)[C@@]12CC[C@]3(C)[C@H](CC[C@@H]4[C@@]5(C)CC[C@H](OC(=O)CC(C)(C)C(=O)O)C(C)(C)[C@@H]5CC[C@]43C)C1=C(C(C)C)C(=O)C2` [Example 26, 4-(((3aR,5aR,5bR,7aR,9S,11aR,11bR,13aS)-3a-((S)-1-Acetoxy-2-((4-fluorobenzyl)amino)ethyl)-1-isopropyl-5a,5b,8,8,11a-pentamethyl-2-oxo-3,3a,4,5,5a,5b,6,7,7a,8,9,10,11,11a,11b,12,13,13a-octadecahydro-2H-cyclopenta[a]chrysen-9-yl)oxy)-2,2-dimethyl-4-oxobutanoic acid]: 4.9 nM.

Take `CC(C)C1=C2[C@H]3CC[C@@H]4[C@@]5(C)CC[C@H](OC(=O)CC(C)(C)CC(=O)O)C(C)(C)[C@@H]5CC[C@@]4(C)[C@]3(C)CC[C@@]2([C@H](O)CN(CCN(C)C)Cc2ccc(Cl)cc2)CC1=O` [Example 23, 5-(((3aR,5aR,5bR,7aR,9S,11aR,11bR,13aS)-3a-((S)-2-((4-Chlorobenzyl)(2-(dimethylamino)ethyl)amino)-1-hydroxyethyl)-1-isopropyl-5a,5b,8,8,11a-pentamethyl-2-oxo-3,3a,4,5,5a,5b,6,7,7a,8,9,10,11,11a,11b,12,13,13a-octadecahydro-2H-cyclopenta[a]chrysen-9-yl)oxy)-3,3-dimethyl-5-oxopentanoic acid]: the EC50 under setting [1] amounted to 4.9 nM. Still for that read-out and setting: under `CC(=O)O[C@@H](CN(CCN(C)C)Cc1ccc(Cl)cc1)[C@@]12CC[C@]3(C)[C@H](CC[C@@H]4[C@@]5(C)CC[C@H](OC(=O)CC(C)(C)C(=O)O)C(C)(C)[C@@H]5CC[C@]43C)C1=C(C(C)C)C(=O)C2` [Example 21, 4-(((3aR,5aR,5bR,7aR,9S,11aR,11bR,13aS)-3a-((R)-1-Acetoxy-2-((4-chlorobenzyl)(2-(dimethylamino)ethyl)amino)ethyl)-1-isopropyl-5a,5b,8,8,11a-pentamethyl-2-oxo-3,3a,4,5,5a,5b,6,7,7a,8,9,10,11,11a,11b,12,13,13a-octadecahydro-2H-cyclopenta[a]chrysen-9-yl)oxy)-2,2-dimethyl-4-oxobutanoic acid] stands 76.5 nM; under `CC(C)C1=C2[C@H]3CC[C@@H]4[C@@]5(C)CC[C@H](OC(=O)CC(C)(C)C(=O)O)C(C)(C)[C@@H]5CC[C@@]4(C)[C@]3(C)CC[C@@]2([C@@H](O)CNCc2ccc(F)cc2)CC1=O` [Example 77, 4-(((3aR,5aR,5bR,7aR,9S,11aR,11bR,13aS)-3a-((R)-2-((4-fluorobenzyl)amino)-1-hydroxyethyl)-1-isopropyl-5a,5b,8,8,11a-pentamethyl-2-oxo-3,3a,4,5,5a,5b,6,7,7a,8,9,10,11,11a,11b,12,13,13a-octadecahydro-2H-cyclopenta[a]chrysen-9-yl)oxy)-2,2-dimethyl-4-oxobutanoic acid], 4.7 nM. Same read-out and setting: under `CC(=O)O[C@@H](CNCc1ccc(Cl)cc1)[C@@]12CC[C@]3(C)[C@H](CC[C@@H]4[C@@]5(C)CC[C@H](OC(=O)CC(C)(C)C(=O)O)C(C)(C)[C@@H]5CC[C@]43C)C1=C(C(C)C)C(=O)C2` [Example 16, 4-(((3aR,5aR,5bR,7aR,9S,11aR,11bR,13aS)-3a-((R)-1-Acetoxy-2-((4-chlorobenzyl)amino)ethyl)-1-isopropyl-5a,5b,8,8,11a-pentamethyl-2-oxo-3,3a,4,5,5a,5b,6,7,7a,8,9,10,11,11a,11b,12,13,13a-octadecahydro-2H-cyclopenta[a]chrysen-9-yl)oxy)-2,2-dimethyl-4-oxobutanoic acid] stands 11 nM; under `CC(C)C1=C2[C@H]3CC[C@@H]4[C@@]5(C)CC[C@H](OC(=O)CC(C)(C)C(=O)O)C(C)(C)[C@@H]5CC[C@@]4(C)[C@]3(C)CC[C@@]2([C@H](O)CN(CCN(C)C)Cc2ccc(F)cc2)CC1=O` [Example 78, 4-(((3aR,5aR,5bR,7aR,9S,11aR,11bR,13aS)-3a-((S)-2-((2-(dimethylamino)ethyl)(4-fluorobenzyl)amino)-1-hydroxyethyl)-1-isopropyl-5a,5b,8,8,11a-pentamethyl-2-oxo-3,3a,4,5,5a,5b,6,7,7a,8,9,10,11,11a,11b,12,13,13a-octadecahydro-2H-cyclopenta[a]chrysen-9-yl)oxy)-2,2-dimethyl-4-oxobutanoic acid], 2.1 nM. Still for that read-out and setting: next, `CC(=O)O[C@H](CN(CCN(C)C)Cc1ccccc1Cl)[C@@]12CC[C@]3(C)[C@H](CC[C@@H]4[C@@]5(C)CC[C@H](OC(=O)CC(C)(C)C(=O)O)C(C)(C)[C@@H]5CC[C@]43C)C1=C(C(C)C)C(=O)C2` [Example 36, 4-(((3aR,5aR,5bR,7aR,9S,11aR,11bR,13aS)-3a-((S)-1-Acetoxy-2-((2-chlorobenzyl)(2-(dimethylamino)ethyl)amino)ethyl)-1-isopropyl-5a,5b,8,8,11a-pentamethyl-2-oxo-3,3a,4,5,5a,5b,6,7,7a,8,9,10,11,11a,11b,12,13,13a-octadecahydro-2H-cyclopenta[a]chrysen-9-yl)oxy)-2,2-dimethyl-4-oxobutanoic acid]: 4 nM. With `CC(C)C1=C2[C@H]3CC[C@@H]4[C@@]5(C)CC[C@H](OC(=O)CC(C)(C)C(=O)O)C(C)(C)[C@@H]5CC[C@@]4(C)[C@]3(C)CC[C@@]2([C@@H]2CN(C3(c4ncc(Cl)cn4)CC3)C(=O)O2)CC1=O` [Example 61, 4-(((3aR,5aR,5bR,7aR,9S,11aR,11bR,13aS)-3a-((R)-3-(1-(5-chloropyrimidin-2-yl)cyclopropyl)-2-oxooxazolidin-5-yl)-1-isopropyl-5a,5b,8,8,11a-pentamethyl-2-oxo-3,3a,4,5,5a,5b,6,7,7a,8,9,10,11,11a,11b,12,13,13a-octadecahydro-2H-cyclopenta[a]chrysen-9-yl)oxy)-2,2-dimethyl-4-oxobutanoic acid], under setting [2], the EC50 was 130 nM. On to `CC(C)C1=C2[C@H]3CC[C@@H]4[C@@]5(C)CC[C@H](OC(=O)CC(C)(C)C(=O)O)C(C)(C)[C@@H]5CC[C@@]4(C)[C@]3(C)CC[C@@]2([C@@H](O)CN(CCN(C)C)Cc2ccc(F)cc2)CC1=O` [Example 76, 4-(((3aR,5aR,5bR,7aR,9S,11aR,11bR,13aS)-3a-((R)-2-((2-(dimethylamino)ethyl)(4-fluorobenzyl)amino)-1-hydroxyethyl)-1-isopropyl-5a,5b,8,8,11a-pentamethyl-2-oxo-3,3a,4,5,5a,5b,6,7,7a,8,9,10,11,11a,11b,12,13,13a-octadecahydro-2H-cyclopenta[a]chrysen-9-yl)oxy)-2,2-dimethyl-4-oxobutanoic acid], for which the 50% effective concentration (EC50) under setting [1] turned out to be 0.7 nM.
